Experimental data from PubChem BioAssay (NCI).
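1) Cells in 96-well plates. 2) Compound, 48 h, 5 concentrations. 3) Linear interpolation between surrounding doses. 4) Unreached endpoint = highest concentration. Abbreviation: GI50, concentration required for 50% inhibition of growth. Definition used: TGI = concentration required for complete inhibition of growth.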

Columns and labels:
Assay in all cases: growth of human tumour cells (NCI), 48 h
SK-MEL-28 melanoma = test system: SK-MEL-28 melanoma
NCI-H226 lung = test system: NCI-H226 lung
SW-620 colon = test system: SW-620 colon
IGROV1 ovarian = test system: IGROV1 ovarian
HOP-62 NSCLC = test system: HOP-62 NSCLC
786-0 renal = test system: 786-0 renal
COLO 205 colon = test system: COLO 205 colon
SK-MEL-5 melanoma = test system: SK-MEL-5 melanoma
UO-31 renal = test system: UO-31 renal
DU-145 prostate = test system: DU-145 prostate
OVCAR-5 ovarian = test system: OVCAR-5 ovarian
MALME-3M melanoma = test system: MALME-3M melanoma
SK-MEL-2 melanoma = test system: SK-MEL-2 melanoma
MDA-MB-435 = test system: MDA-MB-435
PC-3 prostate = test system: PC-3 prostate
UACC-257 melanoma = test system: UACC-257 melanoma
A549 NSCLC = test system: A549 NSCLC
T-47D breast = test system: T-47D breast
SF-268 CNS = test system: SF-268 CNS
OVCAR-8 ovarian = test system: OVCAR-8 ovarian
HCT-116 colon = test system: HCT-116 colon
U251 CNS = test system: U251 CNS
UACC-62 melanoma = test system: UACC-62 melanoma
ACHN renal = test system: ACHN renal
SN12C renal = test system: SN12C renal
NCI-H522 lung = test system: NCI-H522 lung
KM12 colon = test system: KM12 colon
SNB-19 CNS = test system: SNB-19 CNS
BT-549 breast = test system: BT-549 breast
NCI/ADR-RES ovarian = test system: NCI/ADR-RES ovarian

## COP(=O)(CC(F)(F)C(F)(F)F)OC
SK-MEL-28 melanoma
  TGI: 3.89 µM
NCI-H226 lung
  GI50: 23.2 µM
  TGI: 73.1 µM
SW-620 colon
  GI50: 2.04 µM
  TGI: 4.2 µM
IGROV1 ovarian
  GI50: 19.9 µM
  TGI: 42.5 µM
HOP-62 NSCLC
  GI50: 22.7 µM
  TGI: 52.7 µM
786-0 renal
  GI50: 6.27 µM
  TGI: 20.4 µM
COLO 205 colon
  GI50: 1.99 µM
  TGI: 3.62 µM
SK-MEL-5 melanoma
  GI50: 5.98 µM
  TGI: 19.2 µM
UO-31 renal
  GI50: 1.71 µM
  TGI: 3.64 µM
DU-145 prostate
  GI50: 10.5 µM
  TGI: 24.5 µM
OVCAR-5 ovarian
  GI50: 17.5 µM
  TGI: 32.2 µM
MALME-3M melanoma
  GI50: 2.32 µM
  TGI: 5.62 µM
SK-MEL-2 melanoma
  GI50: 16.3 µM
  TGI: 38.4 µM
MDA-MB-435
  GI50: 6.7 µM
  TGI: 22.4 µM
PC-3 prostate
  GI50: 7.87 µM
  TGI: 25.2 µM
UACC-257 melanoma
  GI50: 1.94 µM
  TGI: 5.83 µM
A549 NSCLC
  GI50: 22.1 µM
  TGI: 53.1 µM
T-47D breast
  GI50: 2.36 µM
  TGI: 7.99 µM
SF-268 CNS
  GI50: 24.2 µM
  TGI: 64.2 µM
OVCAR-8 ovarian
  GI50: 17.2 µM
  TGI: 84.2 µM
HCT-116 colon
  GI50: 2.21 µM
  TGI: 5.99 µM
U251 CNS
  GI50: 17.6 µM
  TGI: 38 µM
UACC-62 melanoma
  GI50: 4.95 µM
  TGI: 18 µM
ACHN renal
  GI50: 2.12 µM
  TGI: 4.52 µM
SN12C renal
  GI50: 18.5 µM
  TGI: 37.5 µM
NCI-H522 lung
  GI50: 1.48 µM
  TGI: 3.02 µM
KM12 colon
  GI50: 19.4 µM
  TGI: 40.1 µM
SNB-19 CNS
  GI50: 24.8 µM
  TGI: 77 µM
BT-549 breast
  GI50: 6.26 µM
  TGI: 20.4 µM
NCI/ADR-RES ovarian
  GI50: 2.83 µM
  TGI: 10.2 µM
